Assay results reported in patent US11840527B2, “Non-fused thiophene derivatives and their uses” (ENYO PHARMA, priority 2018, dated 2023).
Structures can show the parent of a compound that is named as a salt.

The compounds below were run on H1N1 (influenza A/New Caledonia/20/99) (assay: Antiviral effect on A549 cells infected with H1N1). Conditions: Influenza A virus, MOI 0.1, 48 h post-infection, MUNANA neuraminidase readout.
Assay type: cell-based, H1N1 A/New Caledonia/20/99 virus
Description: The antiviral effect of the compounds of the invention have been tested on A549 cell lines infected with H1N1 (influenza A/New Caledonia/20/99).
Human A549 cells (80,000 cells/well in a 96 well plate) were treated with a range of concentration of test compounds and immediately infected by H1N1 A/New Caledonia/20/99 virus (clinical isolate) at MOI of 0.1 in DMEM/1% Penicillin/streptomycin supplemented with […] TPCK trypsin (Sigma) and incubated at 37° C. in 5% CO2. 48 h post-infection, supernatants (25 μl) were collected and transferred into a 96-well black flat-bottom plate, mixed with 25 μl PBS with Ca++/Mg++ (Thermo Fisher) and 50 μl of 2′-(4-Methylumbelliferyl)-ax-D-N-acetylneuraminic acid sodium salt hydrate stock-solution (20 μM, MUNANA, Sigma). Plates were incubated 1h at 37° C. and reaction is stopped by adding 100 μl of Stop Solution (glycine 0.1 M pH10.7/25% ethanol). The amount of fluorescent product released by MUNANA hydrolysis (4-MU) was measured in a Tecan spectrophotometer with excitation and emission wavelengths of 365 and 450 nm respectively.

For `O=C(Nc1scc(C2CCCC2)c1C(=O)O)c1cccc(N2CCOCC2)c1` [Compound #71, 4-Cyclopentyl-2-[(3-morpholinobenzoyl)amino]thiophene-3-carboxylic acid], which IC50 is on record?
Its IC50 is 130 nM.

With `O=C(Nc1scc(C2COc3ccccc3C2)c1C(=O)O)c1ccccc1` (stereo not drawn) [Compound #84, 2-Benzamido-4-chroman-3-yl-thiophene-3-carboxylic acid] as the compound, how does the IC50 read?
The IC50 was 287 nM.

Which IC50 does the source give for `O=C(Nc1scc(C2CCc3ccccc3O2)c1C(=O)O)c1ccccc1` (stereo not drawn) [Compound #85, 2-Benzamido-4-chroman-2-yl-thiophene-3-carboxylic acid] here?
The IC50 was 506 nM.

Which IC50 does the source give for `O=C(Nc1scc(C2CC2)c1C(=O)O)c1ccccc1` [Compound #87, 2-Benzamido-4-cyclopropyl-thiophene-3-carboxylic acid] here?
The IC50 was 810 nM.

For `COC1CN(c2ccc(C(=O)Nc3scc(C4CC4)c3C(=O)O)cc2)C1` [Compound #88, 4-Cyclopropyl-2-[[4-(3-methoxyazetidin-1-yl)benzoyl]amino]thiophene-3-carboxylic acid], which IC50 is on record?
The IC50 was 500 nM.

For `O=C(Nc1scc(C2CC2)c1C(=O)O)c1ccc(NCC2CCOCC2)cc1` [Compound #90, 4-Cyclopropyl-2-[[4-(tetrahydropyran-4-ylmethylamino)benzoyl]amino]thiophene-3-carboxylic acid], which IC50 is on record?
The IC50 was 240 nM.

Which IC50 does the source give for `CC(C)(C)c1csc(NC(=O)c2ccc(NCC3CCOCC3)cc2)c1C(=O)O` [Compound #91, 4-Tert-butyl-2-[[4-(tetrahydropyran-4-ylmethylamino)benzoyl]amino]thiophene-3-carboxylic acid] here?
Its IC50 is 120 nM.

How did the IC50 turn out when `COC1CN(c2ccc(C(=O)Nc3scc(C(C)(C)C)c3C(=O)O)cc2)C1` [Compound #92, 4-tert-Butyl-2-[[4-(3-methoxyazetidin-1-yl)benzoyl]amino]thiophene-3-carboxylic acid] was run?
Its IC50 is 260 nM.

`COCCOc1ccc(C(=O)Nc2scc(C3COc4ccccc4C3)c2C(=O)O)cc1` (stereo not drawn) [Compound #95, 4-Chroman-3-yl-2-[[4-(2-methoxyethoxy)benzoyl]amino]thiophene-3-carboxylic acid] was tested. Which IC50 did it give?
Its IC50 is 610 nM.

`CC(C)Cc1csc(NC(=O)c2ccccc2)c1C(=O)O` [Compound #96, 2-Benzamido-4-isobutyl-thiophene-3-carboxylic acid] was tested. Which IC50 did it give?
The IC50 was 610 nM.

`COC1CN(c2ccc(C(=O)Nc3scc(C4CCC4)c3C(=O)O)cc2)C1` [Compound #97, 4-Cyclobutyl-2-[[4-(3-methoxyazetidin-1-yl)benzoyl]amino]thiophene-3-carboxylic acid] was tested. Which IC50 did it give?
Its IC50 is 110 nM.

With `O=C(Nc1scc(C2CCC2)c1C(=O)O)c1ccccc1` [Compound #98, 2-Benzamido-4-cyclobutyl-thiophene-3-carboxylic acid] as the compound, how does the IC50 read?
The IC50 was 610 nM.

Which IC50 does the source give for `O=C(Nc1scc(C2CCC2)c1C(=O)O)c1ccc(NCC2CCOCC2)cc1` [Compound #99, 4-Cyclobutyl-2-[[4-(tetrahydropyran-4-ylmethylamino)benzoyl]amino]thiophene-3-carboxylic acid] here?
The IC50 was 14 nM.

How did the IC50 turn out when `COC1CN(c2ccc(C(=O)Nc3sc(C)c(C)c3C(=O)O)cc2)C1` [Compound #100, 2-[[4-(3-Methoxyazetidin-1-yl)benzoyl]amino]-4,5-dimethyl-thiophene-3-carboxylic acid] was run?
Its IC50 is 44.5 nM.

`Cc1sc(NC(=O)c2ccc(NCC3CCOCC3)cc2)c(C(=O)O)c1C` [Compound #102, 4,5-Dimethyl-2-[[4-(tetrahydropyran-4-ylmethylamino)benzoyl]amino]thiophene-3-carboxylic acid] was tested. Which IC50 did it give?
Its IC50 is 820 nM.

With `COCCNc1ccc(C(=O)Nc2scc(C(C)(C)C)c2C(=O)O)cc1` [Compound #103, 4-tert-Butyl-2-[[4-(2-methoxyethylamino)benzoyl]amino]thiophene-3-carboxylic acid] as the compound, how does the IC50 read?
Its IC50 is 460 nM.

`CCOC1CN(c2ccc(C(=O)Nc3scc(C(C)(C)C)c3C(=O)O)cc2)C1` [Compound #104, 4-tert-Butyl-2-[[4-(3-ethoxyazetidin-1-yl)benzoyl]amino]thiophene-3-carboxylic acid] was tested. Which IC50 did it give?
The IC50 was 240 nM.

`CC(C)(C)c1csc(NC(=O)c2ccc(NC3CCOCC3)cc2)c1C(=O)O` [Compound #105, 4-tert-Butyl-2-[[4-(tetrahydropyran-4-ylamino)benzoyl]amino]thiophene-3-carboxylic acid] was tested. Which IC50 did it give?
Its IC50 is 680 nM.

How did the IC50 turn out when `O=C(Nc1scc(C2CC(F)(F)C2)c1C(=O)O)c1ccc(NCC2CCOCC2)cc1` [Compound #106, 4-(3,3-Difluorocyclobutyl)-2-[[4-(tetrahydropyran-4-ylmethylamino)benzoyl]amino]thiophene-3-carboxylic acid] was run?
The IC50 was 350 nM.

How did the IC50 turn out when `COC1CN(c2ccc(C(=O)Nc3scc(C4CC(F)(F)C4)c3C(=O)O)cc2)C1` [Compound #107, 4-(3,3-Difluorocyclobutyl)-2-[[4-(3-methoxyazetidin-1-yl)benzoyl]amino]thiophene-3-carboxylic acid] was run?
The IC50 was 460 nM.

`COCCNc1ccc(C(=O)Nc2scc(C3(C)CC3)c2C(=O)O)cc1` [Compound #108, 2-[[4-(2-Methoxyethylamino)benzoyl]amino]-4-(1-methylcyclopropyl)thiophene-3-carboxylic acid] was tested. Which IC50 did it give?
Its IC50 is 560 nM.

Which IC50 does the source give for `COC1CN(c2ccc(C(=O)Nc3scc(CC(C)C)c3C(=O)O)cc2)C1` [Compound #109, 4-iso-Butyl-2-[[4-(3-methoxyazetidin-1-yl)benzoyl]amino]thiophene-3-carboxylic acid diethylamine salt] here?
Its IC50 is 200 nM.

Which IC50 does the source give for `CC(C)(C)c1csc(NC(=O)c2cccc(NCC3CCOCC3)c2)c1C(=O)O` [Compound #110, 4-tert-Butyl-2-[[3-(tetrahydropyran-4-ylmethylamino)benzoyl]amino]thiophene-3-carboxylic acid] here?
The IC50 was 820 nM.

For `COC1CN(c2ccc(C(=O)Nc3scc(C4(C)CC4)c3C(=O)O)cc2)C1` [Compound #112, 2-[[4-(3-Methoxyazetidin-1-yl)benzoyl]amino]-4-(1-methylcyclopropyl) thiophene-3-carboxylic acid], which IC50 is on record?
The IC50 was 380 nM.

With `CC(C)Cc1csc(NC(=O)c2ccc(NCC3CCOCC3)cc2)c1C(=O)O` [Compound #113, 4-Isobutyl-2-[[4-(tetrahydropyran-4-ylmethylamino)benzoyl]amino]thiophene-3-carboxylic acid] as the compound, how does the IC50 read?
The IC50 was 120 nM.

With `COC1CN(c2ccc(C(=O)Nc3sc(C(C)C)c(C)c3C(=O)O)cc2)C1` [Compound #114, 5-Isopropyl-2-[[4-(3-methoxyazetidin-1-yl)benzoyl]amino]-4-methyl-thiophene-3-carboxylic acid diethylamine salt] as the compound, how does the IC50 read?
Its IC50 is 510 nM.

Which IC50 does the source give for `COC1CN(c2ccc(C(=O)Nc3scc(C4(C)CCC4)c3C(=O)O)cc2)C1` [Compound #115, 2-[[4-(3-Methoxyazetidin-1-yl)benzoyl]amino]-4-(1-methylcyclobutyl) thiophene-3-carboxylic acid] here?
Its IC50 is 240 nM.

How did the IC50 turn out when `COCCOc1ccc(C(=O)Nc2scc(C(C)(C)C)c2C(=O)O)cc1` [Compound #116, 4-tert-Butyl-2-[[4-(2-methoxyethoxy)benzoyl]amino]thiophene-3-carboxylic acid] was run?
The IC50 was 10 nM.

For `COCCN(C)c1ccc(C(=O)Nc2scc(C(C)(C)C)c2C(=O)O)cc1` [Compound #117, 4-tert-Butyl-2-[[4-[2-methoxyethyl(methyl)amino]benzoyl]amino]thiophene-3-carboxylic acid], which IC50 is on record?
Its IC50 is 76 nM.

For `CC(C)(C)c1csc(NC(=O)c2ccc(NC3CCCOC3)cc2)c1C(=O)O` (stereo not drawn) [Compound #118, 4-tert-Butyl-2-[[4-(tetrahydropyran-3-ylamino)benzoyl]amino]thiophene-3-carboxylic acid], which IC50 is on record?
The IC50 was 200 nM.

With `CC(C)(C)c1csc(NC(=O)c2ccc(NCC3CCCOC3)cc2)c1C(=O)O` (stereo not drawn) [Compound #119, 4-tert-Butyl-2-[[4-(tetrahydropyran-3-ylmethylamino)benzoyl]amino]thiophene-3-carboxylic acid] as the compound, how does the IC50 read?
Its IC50 is 100 nM.

Which IC50 does the source give for `CN(CC1CCOCC1)c1ccc(C(=O)Nc2scc(C(C)(C)C)c2C(=O)O)cc1` [Compound #120, 4-tert-Butyl-2-[[4-[methyl(tetrahydropyran-4-ylmethyl)amino]benzoyl]amino]thiophene-3-carboxylic acid] here?
Its IC50 is 100 nM.

With `COC1CN(c2ccc(C(=O)Nc3scc(C(C)(C)C)c3C(=O)O)c(F)c2)C1` [Compound #121, 4-tert-Butyl-2-[[2-fluoro-4-(3-methoxyazetidin-1-yl)benzoyl]amino]thiophene-3-carboxylicacid] as the compound, how does the IC50 read?
The IC50 was 510 nM.
